One test concerns LTB4. The experiment in a line: Reverse passive Arthus pleurisy assay, inflammatory mediator release: LTB4. It counts as in vivo, rat (male Lewis). As to conditions: for % Inhibition of LTB4 Synthesis: 3 hours before challenge. The procedure: The compounds of the invention are further tested in the reverse passive Arthus pleurisy assay to evaluate their effectiveness in inflammatory mediator release and/or the fluid and cellular phases of an inflammatory response.
(§1) This assay is carried out as follows:
A reverse passive Arthus reaction is induced in the pleural cavity of male Lewis rats (150-200 g; fasted overnight prior to use) by the intravenous administration of bovine serum albumin (BSA; 4 mg/0.2 ml) followed 30 minutes later by the injection of rabbit anti-BSA (1 mg/0.2 ml; lyophilized IgG fraction; Organon Teknika, West Chester, Pa.) into the right pleural space under halothane anesthesia. […] Animals are sacrificed at either the time of peak eicosanoid production (i.e. 5 minutes after anti-BSA for immunoreactive TxB2 10 minutes for immunoreactive LTB4, 20 minutes for immunoreactive LTC4) or at the time of peak neutrophil infiltration (4 hours after anti-BSA) by CO2 inhalation. The pleural cavity is then exposed, the fluid exudate removed by gentle vacuum aspiration and the volume of exudate is recorded. For the determination of cellular infiltration, the pleural cavity is rinsed with 3 ml of 0.1% EDTA in sterile saline, and the recovered wash is pooled with the exudate. Cell number is determined on a model ZBI Coulter counter. For determination of eicosanoid production, undiluted pleural exudate is microfuged and the supernatant is extracted with ethanol (8-10 times volume). Extracts are either stored at -20° C., or are evaporated to dryness under a stream of N2 and reconstituted in radioimmunoassay (RIA) buffer.
Eicosanoids are quantitated by RIA according to the procedure specified by the RIA kit manufacturer (Advanced Magnetics, Cambridge, Mass.). Briefly, 100 μl of ^3 H-labeled eicosanoid and 100 μl of specific antibody are sequentially added to 100 μl of extracted pleural exudate in BGG -phosphate buffer which contains 0.01 M phosphate, 0.1% bovine gamma globulin and 0.1% sodium azide at pH 7.0. Antibody-bound eicosanoid is separated from unbound eicosanoid by the addition of 750 μl of dextran (0.4%)-coated charcoal (0.4% Norit A) containing 0.1% sodium azide. The mixture is centrifuged at 2000 RPM at 5° C. for 15 minutes to pellet the charcoal and adsorbed unbound eicosanoid. Antibody-bound labeled eicosanoid is quantitated by counting in a liquid scintillation counter, and is correlated to concentration by a standard curve.
Inflammatory cells are expressed as 10^6 cells/ml, pleural exudate is expressed as ml of fluid, and the amount of eicosanoids in the pleural cavity is expressed as ng/ml of exudate. Mean ±S.E.M. is determined for each group. Percent inhibition (% I) of cell number, exudate volume and eicosanoid production is calculated for vehicle-treated control groups, and the responses in drug-treated rats are then expressed as the mean % I of the control. […] Exp. Ther., 96, 99-113 (1949).

Test [1] relates to 5-lipoxygenase in human whole blood. The experiment in a line: Inhibition of 5-lipoxygenase in human whole blood (LTB4). It counts as cell-based. The procedure: The assay of this Example measures the ability of the compounds tested to inhibit 5-lipoxygenase in human whole blood.
as §1
Blood is obtained in 50-100 ml quantities from male donors. White blood cell counts and differentials are made. Two ml of blood are placed in a 15 ml polypropylene test tube. Compounds are solubilized in dimethylsulfoxide and diluted 1:10 in 10% bovine serum albumin in phosphate buffered saline, pH 7.4 resulting in a final dimethylsulfoxide concentration of 0.1% in the blood. Then, compounds are added to the blood in a shaking water bath at 37° C. for 10 minutes prior to the addition of 30 μM calcium ionophore (A23187; Sigma). After ionophore administration, whole blood samples are mixed and incubated for 20 minutes at […] in a shaking water bath. Incubation is terminated by placing samples in an ice bath and immediately adding ethylene glycol-bis-(β-aminoethyl ether)-N,N,N',N'-tetraacetic acid (10 mM). Samples are mixed and centrifuged at 1200×g for 15 minutes at 4° C. Preparation of samples for evaluation by RIA or ELISA is carried out by the following protocol. Plasma is removed from sample tubes, placed in 15 ml polypropylene test tubes containing 8 ml methanol, and then vortexed to precipitate protein. Samples are stored at -70° C. overnight. The next day, samples are centrifuged at 200×g for 15 minutes at 4° C. to pellet the precipitate. Samples are dried in a Savant speed vac concentrator, reconstituted to original volume with ice cold RIA or ELISA buffer, and stored at -70° C. until assayed. The assay for eicosanoids (LTB4, TxB2, and PGE2) is performed as described by the manufacturer of the [^3 H]-RIA kit or ELISA kit (LTB4 -Amersham, TxB2 and PGE2 - Caymen Chemical).
The total eicosanoid level in 2 ml of blood is calculated and reported as ng/10^6 neutrophils. […] Drug effects are expressed as percent change from control values.
Compounds tested in vitro are solubilized in dimethylsulfoxide and diluted 1:10 in 10% bovine serum albumin in phosphate buffer saline resulting in a final dimethylsulfoxide concentration of 0.1% in the blood.

For test [2], the target named is T1, LTD4-induced contractions of isolated guinea pig trachea (Cavia porcellus, UniProt Q2NNR5).
T1 construct: isolated guinea pig trachea; from tissue; host or cells: tracheal rings of male Hartley guinea pigs
T1 sequence (Q2NNR5 1-340): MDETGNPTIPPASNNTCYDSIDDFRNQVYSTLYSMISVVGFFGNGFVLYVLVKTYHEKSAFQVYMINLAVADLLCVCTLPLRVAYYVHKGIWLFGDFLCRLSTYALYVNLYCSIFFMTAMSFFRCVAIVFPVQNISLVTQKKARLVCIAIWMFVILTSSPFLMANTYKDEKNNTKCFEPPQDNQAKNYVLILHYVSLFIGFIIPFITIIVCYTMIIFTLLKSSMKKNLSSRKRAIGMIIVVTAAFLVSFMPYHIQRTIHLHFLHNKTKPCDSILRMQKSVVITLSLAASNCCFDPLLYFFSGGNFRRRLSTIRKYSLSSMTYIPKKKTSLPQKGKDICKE
As to the kind of experiment: In vitro isolated guinea pig trachea assay, LTD4 antagonist activity. More on the design: species or system guinea pig (male Hartley). As to conditions: 1 × 10^-5 M. The protocol: The LTD4 antagonist activity of the compounds of the invention is assessed in the in vitro isolated guinea pig trachea assay. This assay is carried out as follows: Male Hartley guinea pigs (350-400 g) are euthanized by a blow to the head, the neck is opened and the trachea removed. The trachea is maintained in aerated physiological salt solution, cleared of connective tissue and fat and cut into rings approximately 2 mm in width (usually containing two cartilaginous segments per ring). Two pieces of silk suture are then passed through the lumen of the tracheal ting and are tied around the cartilage, one on each side of the trachealis muscle. The tracheal ring is suspended between a glass hook and a force displacement transducer in a 10 ml organ bath for measurement of isometric tension. […] The tracheal rings are maintained at 2 g resting tension and equilibrated for 45 minutes (with frequent washing and readjustment of resting tension). The tracheal […] contracted by the addition of carbachol (3×10^-6 M), to determine tissue responsiveness and establish a reference contraction. On attainment of a stable level of contraction (approximately 30 minutes), the tissues are washed several times until baseline tension has been restored and the re-equilibrated for 30 minutes. The tissues are then incubated for 45 minutes with a test antiagonist (either 1×10^-6 M or 1×10^-5 M) or 10 μl of an appropriate solvent control (control, nontreated). One tissue in each group serves as the control. Twenty minutes prior to the construction of the LTD4 cumulative concentration-response curve, L-[…]×10^-2 M final bath concentration) is added to inhibit bioconversion of LTD4 to LTE4. Only one LTD4 concentration-response curve is constructed in each tissue. All responses to LTD4 in an individual tissue are measured as a percentage of the reference contraction of that tissue to carbachol. LTD4 antagonist activity is determined by comparison of the concentration response curves of LTD4 in the presence and absence of antagonist. Assessment of the relative rightward shift of the antagonist treated curve relative to the solvent (control) treated tissue is calculated as a concentration ratio (Eq. A) and used in subsequent calculations to derive an antagonist pKB value (Eqs. B and C). […] If a compound is found to be active and/or depress the maximal response to LTD4, then a range of concentrations of the test compound should be used generating multiple concentration ratios which would then be used to perform a Schild analysis, and determination of a pA2 value where appropriate.

Counter-ions that a name gives are not always drawn. Like-named read-outs stand apart in the source and are kept apart here.

For orientation: Kb means the affinity of an antagonist, worked out from how it opposes an agonist. A higher Kb goes with lower antagonist affinity. For orientation: IC50 means the concentration that inhibits the measured activity by half. What is called pKB is the negative decadic logarithm of the KB, by convention in mol/L. Read a high pKB as a low KB.

For `O=C(O)Cc1ccc(-c2ccc(OCc3ccc4ccccc4n3)cc2)c(F)c1` [Example 2, 2-Fluoro-4'-(2-quinolinylmethoxy)-[1,1'-biphenyl]-4-acetic acid], the “% Inhibition of LTB4 Synthesis” value in the test on LTB4 (25 mg/kg p.o.) was 34%. Besides, the “% Inhibition of LTB4” value in test [1] (at 25 μM) worked out at 5%. Also, in test [2], the Kb is 0.631 µM.
For the compound `CC(C)N(O)C(=O)Cc1ccc(-c2ccc(OCc3nc4ccccc4s3)cc2)cc1` [Example 15, N-Hydroxy-N-isopropyl-4'-(2-benzothiazolymethoxy)[1,1'-biphenyl]-4-acetamide], the “% Inhibition of LTB4 Synthesis” value in the test with LTB4 (10 mg/kg p.o.) is reported as 12%. In addition, in test [1] (at 25 μM), the “% Inhibition of LTB4” value was determined as 77%. In addition, the antagonist dissociation constant (Kb) in test [2] is more than 10 µM.
Regarding `CC(C(=O)N(C)O)c1ccc(-c2ccc(OCc3nc4ccccc4s3)cc2)cc1` (stereo not drawn) [Example 16, N-Hydroxy-N,α-dimethyl-4'-(2-benzothiazolylmethoxy)[1,1'-biphenyl]-4-acetamide], the “% Inhibition of LTB4 Synthesis” value with LTB4 (25 mg/kg p.o.) worked out at 46%. The compound also registered an IC50 in test [1] of 8300 nM. Besides, the “% Inhibition of LTB4” value in test [1] (at 25 μM) is reported as 72%.
Turning to `CC(C(=O)N(C)O)c1ccc(-c2ccc(OCc3nc4ccccc4s3)cc2)cc1` (centres unmarked) [Example 17, N-Hydroxy-N.,a,-dimethyl-4'-(2-benzothiazolylmethoxy)[1,1'-biphenyl]-4-acetamide, sodium salt, methanol solvate], the “% Inhibition of LTB4 Synthesis” value in the test with LTB4 (25 mg/kg p.o.) is listed as 37%. This compound also showed a Kb in test [2] of more than 3.16 µM.
Consider `CN(O)C(=O)Cc1ccc(-c2ccc(OCc3csc(-c4ccccc4)n3)cc2)cc1` [Example 18], for which the “% Inhibition of LTB4 Synthesis” value in the test with LTB4 (25 mg/kg p.o.) amounted to 32%. Also, the IC50 in test [1] worked out at 500 nM. Further, in test [1] (at 25 μM), the “% Inhibition of LTB4” value was found to be 97%. This compound also had a Kb in test [2] of more than 7.94 µM.
With `CC(C)N(O)C(=O)Cc1ccc(-c2ccc(OCc3csc(-c4ccccc4)n3)cc2)cc1` [Example 20, N-Hydroxy-N-isopropyl-4'-[(2-phenylthiazol-4yl)methoxy][1,1'-biphenyl]-4-acetamide], the “% Inhibition of LTB4 Synthesis” value in the test with LTB4 (25 mg/kg p.o.) is recorded as 19%. The “% Inhibition of LTB4” value in test [1] (at 25 μM) turned out to be 93%. In test [2], this compound returned a negative-log KB (pKB) of less than 5.2.
In the case of `CC(C(=O)N(C)O)c1ccc(-c2ccc(OCc3csc(-c4ccccc4)n3)cc2)cc1` (stereo not drawn) [Example 22, N-Hydroxy-N,α-dimethyl-4'-[(2-phenylthiazol-4-yl)methoxy][1,1'-biphenyl]-4-acetamide,sodium salt, hydrate], in the test on LTB4 (25 mg/kg p.o., sodium salt, hydrate), the “% Inhibition of LTB4 Synthesis” value worked out at 37%. In test [1] (at 25 μM, sodium salt, hydrate), the “% Inhibition of LTB4” value is given as 74%. Moreover, in test [1] (sodium salt, hydrate), the half-inhibitory concentration (IC50) came out at 9000 nM. In addition, the antagonist dissociation constant (Kb) in test [2] was 5.01 µM.
For the compound `CC(C(=O)N(C)O)c1ccc(-c2ccc(OCc3nc4ccccc4n3C)cc2)cc1` (stereo not drawn) [Example 24, N-Hlydroxy-N,α-dimethyl-4'-[(1-methyl-1H-benzimidazol-2-yl)methoxy]-[1,1'-biphenyl]-4-acetamide, hydrochloride salt], the “% Inhibition of LTB4 Synthesis” value with LTB4 (25 mg/kg p.o.) was 56%. In test [2], this compound showed a Kb of 1 µM.
Regarding `CN(O)C(=O)Cc1ccc(-c2ccc(OCc3nc4ccccc4s3)cc2)c(F)c1` [Example 26], in the test on LTB4 (25 mg/kg p.o.), the “% Inhibition of LTB4 Synthesis” value was found to be 7%. Also, half-maximal inhibition in test [1] (IC50) was put at 1300 nM. In test [1] (at 25 μM), the “% Inhibition of LTB4” value is 86%. This compound showed a Kb in test [2] of more than 10 µM.
As to `CN(O)C(=O)Cc1cccc(C(=O)c2ccc(OCc3nc4ccccc4s3)cc2)c1` [Example 30, 2-{3-[4-(Benzothiazol-2-ylmethoxy)-benzoyl]-phenyl}-N-hydroxy-N-methyl-4-acetamide 0,6 ethyl acetate solvate], the “% Inhibition of LTB4 Synthesis” value in the test on LTB4 (25 mg/kg p.o.) came out at 21%. The same compound showed an IC50 in test [1] of 980 nM. Moreover, the “% Inhibition of LTB4” value in test [1] (at 10 μM) came out at 96%.
Regarding `CC(c1ccc(-c2ccc(OCc3nc4ccccc4s3)cc2)cc1)N(O)C(N)=O` (centres unmarked) [Example 33, 1-{1-[4'-(Benzothiazol-2-ylmethoxy)biphenyl-4-yl]-ethyl}-1-hydroxy-urea], in the test on LTB4 (25 mg/kg p.o.), the “% Inhibition of LTB4 Synthesis” value turned out to be 2%. Besides, the “% Inhibition of LTB4” value in test [1] (at 10 μM) amounted to 10%. This compound gave an antagonist dissociation constant (Kb) in test [2] of more than 10 µM.
As for `CC(C(=O)O)c1cccc(C(=O)c2ccccc2)c1` (centres unmarked) [ketoprofen, reference compound], the “% Inh LTB4” value with LTB4 (10 mg/kg p.o., standard drugs) is reported as 35%.

For the origin of these results see patent US5364944A, “Substituted benzoylbenzene-, biphenyl- and 2-oxazole- alkanoic acid compounds” (American Home Products Corporation, priority 1993, dated 1994).
